Molecules are shown by their SMILES. Read-outs that look alike come from different tables or passages of the source.

Assay [1] has as its system Scleraxis (Scx) gene transcriptional activation in TT-D6 Scx-luciferase (ScxL) cell line. Kind of assay: SCX-LUC in vitro assay (Scx-luciferase reporter). As to conditions: Mus musculus. Format: cell-based. (In a reporter assay the amount or activity of a reporter protein is the signal.)
The test system of assay [2] is Tenomodulin (Tnmd) gene expression in rat tail tendon fascicles. As to the kind of experiment: Ex vivo assay, Tnmd mRNA in tendon fascicles (qPCR). The class given is cell-based, Sprague Dawley rat. (Quantitative PCR measures a nucleic acid by following its amplification.)
The test system of assay [3] is collagen type I (Col1a2) gene expression in rat tail tendon fascicles. As to the kind of experiment: Ex vivo assay, Col1a2 mRNA in tendon fascicles (qPCR). The class given is cell-based, Sprague Dawley rat.
Assay [4] deals with tendon lesion. Kind of assay: In vivo assay, endochondral ossification readout (Alcian blue) in tendon lesion. The note with it: 1 mg peri-tendinous injection 3 days post-surgery. As for the experimental part: Animals were treated 3 days post-surgery with 1 mg of compound of example 32 in 10 ul of vehicle delivered by injection under the skin in the peri-tendinous region. Tendons were harvested 25 days post-treatment. Strong Alcian blue staining could be seen in the lesion in the vehicle treated group which is typical of endochondral tissue forming which further ossifies with time. […] Definiens Tissue Studio software was used for quantitative image analysis of the Alcian blue positive area. Serial step sections encompassing 2 mm of the lesion were used for quantification.

Assay [5] deals with Rat tail fascicles. Kind of assay: Ex vivo fascicle assay, mechanical testing. Also on record: species or system rat (Sprague Dawley). As to conditions: 1 uM, 37° C., 4 weeks. From the text:
Tail from skeletal mature rat (Sprague Dawley, female, 30-50 weeks old) was removed and kept on ice. Approximately 40 mm long segment was cut from the mid-portion of the tail. Rat tail fascicles (n=12) were carefully extracted from the segment. Fascicles were then randomly selected into three groups, fresh (n=4), vehicle (n=4) and (S)-(1-((4-(3-amino-4-methyl-1H-indazol-5-yl)-3-methylphenyl)sulfonyl)-4,4-difluoropyrrolidin-2-yl)methanol (Test Compound A hereinafter) treated (n=4). Biomechanical properties were measure immediately after extraction for the fresh group. […]
Samples were clamped for mechanical testing using a standard uniaxial material testing machine (ElectroPuls E3000, 50N load-cell, Instron, US) in a custom environmental testing chamber filled with PBS. Samples were preloaded to a position where crimp (macroscopic fascicle waviness) disappeared and initial length (L0) based on grip-to-grip distance was recorded. […] Sample lengths and corresponding forces were recorded to calculate engineering stress and strain. Young's moduli were calculated from the linear region of the stress-strain curves. […]

Assay [6] deals with Scleraxis (Scx) gene expression in rat tail tendon fascicles. Kind of assay: Ex vivo assay, Scx mRNA in tendon fascicles (qPCR). Format: cell-based, Sprague Dawley rat.
Assay [7] has as its target recombinant human Jak3 (aa811-1124) (Homo sapiens (Human), UniProt P52333). The class given is biochemical.
In assay [8] the target is recombinant human Jak1 (aa 866-1154) (Homo sapiens (Human), UniProt P23458). As to the kind of experiment: Kinase selectivity panel, substrate peptide phosphorylation (Caliper). The class given is biochemical.
Sequence of recombinant human Jak1 (aa 866-1154) (P23458 866-1154): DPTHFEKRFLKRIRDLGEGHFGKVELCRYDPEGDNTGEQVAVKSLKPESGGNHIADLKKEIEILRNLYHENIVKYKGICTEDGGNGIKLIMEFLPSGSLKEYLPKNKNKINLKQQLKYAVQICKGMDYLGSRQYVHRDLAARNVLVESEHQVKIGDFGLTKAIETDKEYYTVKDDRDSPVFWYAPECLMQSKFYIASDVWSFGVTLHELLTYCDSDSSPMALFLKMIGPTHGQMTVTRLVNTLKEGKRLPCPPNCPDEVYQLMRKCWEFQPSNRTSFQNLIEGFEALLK
Assay [9] deals with recombinant human Tyk2 (aa888-1187) (Homo sapiens (Human), UniProt P29597). The assay is described as above. Format: biochemical. The note with it: 45 uM ATP.
Sequence of recombinant human Tyk2 (aa888-1187) (P29597 888-1187): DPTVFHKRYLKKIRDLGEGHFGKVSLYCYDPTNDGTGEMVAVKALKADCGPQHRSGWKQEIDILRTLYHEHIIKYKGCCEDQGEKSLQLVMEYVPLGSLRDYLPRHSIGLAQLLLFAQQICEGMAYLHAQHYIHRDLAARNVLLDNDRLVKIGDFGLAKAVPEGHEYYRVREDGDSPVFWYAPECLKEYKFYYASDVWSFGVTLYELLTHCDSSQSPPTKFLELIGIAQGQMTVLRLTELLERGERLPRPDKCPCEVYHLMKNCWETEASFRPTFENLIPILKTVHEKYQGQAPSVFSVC
Assay [10] deals with recombinant human Jak2 (aa808-1132) (Homo sapiens (Human), UniProt O60674). Described as above. The class given is biochemical.
The mark [11] stands for this setting: read-out: Ex vivo Tnmd (EC50 uM).
Where [12] appears, read: read-out: Ex vivo Col1a2 (EC50 uM).
The mark [13] stands for this setting: read-out: Ex vivo SCX (EC50 uM).
The mark [14] stands for this setting: Table 1, read-out: Scx-Luc (EC50 uM).
Where [15] appears, read: Table 1, read-out: Ex vivo Tnmd (EC50 uM).
Where [16] appears, read: Table 1, read-out: Ex vivo Col1a2 (EC50 uM).
Where [17] appears, read: Table 1, read-out: Ex vivo SCX (EC50 uM).

Sequence of recombinant human Jak3 (aa811-1124) (P52333 811-1124): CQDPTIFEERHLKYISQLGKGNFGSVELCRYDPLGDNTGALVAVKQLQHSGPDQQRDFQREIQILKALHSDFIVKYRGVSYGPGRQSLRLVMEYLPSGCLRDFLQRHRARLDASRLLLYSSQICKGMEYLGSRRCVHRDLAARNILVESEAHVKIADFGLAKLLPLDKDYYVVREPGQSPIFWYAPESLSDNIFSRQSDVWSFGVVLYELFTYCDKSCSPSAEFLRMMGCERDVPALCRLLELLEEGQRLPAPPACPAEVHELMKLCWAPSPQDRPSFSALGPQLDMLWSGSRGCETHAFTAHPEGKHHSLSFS

With `Cc1cc(S(=O)(=O)N2CC(F)(F)C[C@H]2CO)ccc1-c1ccc2[nH]nc(N)c2c1C` [Example 32, (S)-(1-((4-(3-amino-4-methyl-1H-indazol-5-yl)-3-methylphenyl)sulfonyl)-4,4-difluoropyrrolidin-2-yl)methanol], the EC50 stood at 0.518 µM in [1] (96 h, Table 3, four days, read-out: Scx-Luc (EC50 μM)); 6.1 µM in assay [2] (96 h, Table 3, four days, read-out: Ex vivo Tnmd (EC50 μM)); 4.59 µM in [3] (96 h, Table 3, four days, read-out: Ex vivo Col1a2 (EC50 μM)); 5.56 µM in assay [6] (96 h, Table 3, four days, read-out: Ex vivo Scx (EC50 μM)). The “effect on improper healing (aberrant differentiation towards chondrogenic and osteogenic lineages)” value in assay [4] (25 days post-treatment) is “able to counter some of the improper healing”. The “Endochondral ossification readout Alcian Blue positive (mm^2/section), Mean” value in assay [4] (tendons harvested 25 days post-treatment) amounted to 25.09 mm^2/section. Besides, the “tendon degeneration in unloaded condition (tendon structure, failure stress, Young's modulus)” value in assay [5] was “could prevent the degeneration”.

Take `Cc1cc(Nc2nc(N[C@@H](C)c3ncc(F)cn3)ncc2Cl)n[nH]1` [reference compound]: the IC50 in assay [7] (45 uM ATP) was 0.06 µM; in [8] (45 uM ATP), 0.0002 µM; in [9], 0.002 µM; in assay [10] (45 uM ATP), 0.0007 µM. In addition, the concentration giving a half-maximal response (EC50) stood at 0.008 µM in assay [1] (read-out: Scx-Luc (EC50 uM)), 3.3 µM in assay [2] (setting [11]), 2.61 µM in assay [3] (setting [12]) and 3.37 µM in [6] (setting [13]).

Regarding `CC[C@@](C)(Nc1ccnc(-c2c[nH]c3ncccc23)n1)C(=O)NCC(F)(F)F` [reference compound], the concentration for half-maximal inhibition (IC50) in [8] (45 uM ATP) was found to be 0.02 µM; in assay [10] it was 0.13 µM. The EC50 in assay [1] (read-out: Scx-Luc (EC50 uM)) was 0.03 µM; in assay [2] (setting [11]), 1.77 µM; in assay [3] (setting [12]), 0.88 µM; in assay [6] (setting [13]) it was 1.65 µM.

Consider `CS(=O)(=O)NCc1nc2cnc3[nH]ccc3c2n1[C@@H]1C[C@H]2CC[C@@H]1C2` [reference compound], for which the figures for the IC50 in [7], in [9] and in assay [10] were 0.95 µM, 0.14 µM and 0.19 µM, respectively. Besides, the EC50 in assay [1] (setting [14]) came to 0.18 µM; in assay [2] (setting [15]), 4.57 µM; in assay [3] (setting [16]) it was 3.76 µM; in [6] (setting [17]) it was 3.22 µM.

For `N#Cc1ccc(COc2ccc(-c3cccc4nc(NC(=O)C5CC5)nn34)cc2)cn1` [reference compound], the IC50 amounted to 0.38 µM in assay [7], 0.001 µM in assay [8], 0.11 µM in assay [9] and 0.03 µM in assay [10]. Also, the half-maximal effective concentration (EC50) in assay [1] (setting [14]) was found to be 0.22 µM; in assay [2] (setting [15]), 1.31 µM; in assay [3] (setting [16]), 0.9 µM; in assay [6] (setting [17]) it was 5.77 µM.

For orientation: EC50 means the concentration at which the effect is half-maximal. One may read the IC50 as the concentration needed to halve the response being measured.

Values taken from patent US10112907B2, “Substituted indazoles for treating tendon and/or ligament injuries” (NOVARTIS AG, priority 2016, dated 2018).
